# Assay results from patent US20240279218A1 (Hoffmann-La Roche Inc., priority 2016, published 2024).
# pKi: −log10 of the molar value.
# How the values were obtained:
# h-GABA-A α5β3γ2 [1] = target: T1, h-GABA-A α5β3γ2 (Homo sapiens (Human), UniProt P18507+P31644); assay: Two-electrode voltage clamp electrophysiology in Xenopus oocytes expressing GABAA receptors, modulation of GABA EC20 current; format: cell-based; conditions: Xenopus oocytes; for Efficacy (GABA) %: % modulation of GABA EC20 = 100*(Fold increase−1); for Fold increase h-GABA-A α5β3γ2 oocyte: GABA EC20, test compound at approx. 30 fold its Ki
# How it was run: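 Values are % modulation of an EC20 GABA response, derived point by point from the ratio of compound-exposed versus control current traces (extremum taken, 100×(fold−1)). Recordings used oocytes injected with human α5, β3, γ2 mRNA, clamped at −80 mV at room temperature, at least 3 oocytes each.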
# h-GABA-A α5β3γ2 [2] = target: T1, h-GABA-A α5β3γ2; assay: [3H]flumazenil competition binding assay, membranes of HEK293 cells expressing human GABAA receptors; conditions: displacement of [3H]flumazenil 0.5 nM, HEK293 cells expressing human receptors, mean of two determinations; read-out: Ki h-GABA-A α5β3γ2
# How it was run: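 Membranes were prepared from HEK293 cells with transient human α5β3γ2 expression and assayed in Krebs-tris, pH 7.5. Bound radioactivity measured on filters by liquid scintillation.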
Efficacy (GABA) % (h-GABA-A α5β3γ2 [1]) [%],Fold increase h-GABA-A α5β3γ2 oocyte (h-GABA-A α5β3γ2 [1]),pKi (h-GABA-A α5β3γ2 [2]),Structure (SMILES)
72,1.72,7.25,"CCOC(=O)C1(NC(=O)c2ccc(OCc3c(-c4ccc(C)nc4)noc3C)nn2)CC1 [Example 68, ethyl 1-(6-((5-methyl-3-(6-methylpyridin-3-yl)isoxazol-4-yl)methoxy)pyridazine-3-carboxamido)cyclopropanecarboxylate]"
86,1.86,8.11,"Cc1ccc(-c2noc(C)c2COc2ccc(C(=O)NC3(C#N)CC3)nn2)cn1 [Example 69, N-(1-cyanocyclopropyl)-6-((5-methyl-3-(6-methylpyridin-3-yl)isoxazol-4-yl)methoxy)pyridazine-3-carboxamide]"
54,1.54,8.92,"Cc1ccc(-c2noc(C)c2COc2nnc(C(N)=O)cc2C)cn1 [Example 70, 5-methyl-6-((5-methyl-3-(6-methylpyridin-3-yl)isoxazol-4-yl)methoxy)pyridazine-3-carboxamide]"
61,1.61,8.62,Cc1ccc(-c2noc(C)c2COc2nnc(C(=O)NC3CCOCC3)cc2C)cn1 [Example 71]
130,2.3,7.94,"Cc1ccc(-c2noc(C)c2COc2cnc(C(=O)NC3CCS(=O)(=O)CC3)cn2)cn1 [Example 72, N-(1,1-dioxothian-4-yl)-5-((5-methyl-3-(6-methyl-3-pyridyl)isoxazol-4-yl)methoxy)pyrazine-2-carboxamide]"
45,1.45,7.28,"Cc1ccc(-c2noc(C)c2COc2cnc(C(=O)NC(C)(C)CO)cn2)cn1 [Example 73, N-(2-hydroxy-1,1-dimethyl-ethyl)-5-((5-methyl-3-(6-methyl-3-pyridyl)isoxazol-4-yl)methoxy)pyrazine-2-carboxamide]"
28,1.28,8.04,"Cc1ccc(-c2noc(C)c2COc2cnc(C(=O)NC3CC3)cn2)cn1 [Example 74, N-cyclopropyl-5-((5-methyl-3-(6-methyl-3-pyridyl)isoxazol-4-yl)methoxy)pyrazine-2-carboxamide]"
92,1.92,8.05,"Cc1ccc(-c2noc(C)c2COc2ccc(C(=O)NC3(C)CC3)nn2)cn1 [Example 76, 6-((5-methyl-3-(6-methylpyridin-3-yl)isoxazol-4-yl)methoxy)-N-(1-methylcyclopropyl)pyridazine-3-carboxamide]"
42,1.42,7.61,"Cc1ccc(-c2noc(C)c2COc2cnc(C(=O)NCC(F)(F)F)cn2)cn1 [Example 78, 5-((5-methyl-3-(6-methyl-3-pyridyl)isoxazol-4-yl)methoxy)-N-(2,2,2-trifluoroethyl)pyrazine-2-carboxamide]"
96,1.96,7.95,"Cc1ccc(-c2noc(C)c2COc2ccc(C(=O)NC(C)(C)CCO)nn2)cn1 [Example 79, N-(4-hydroxy-2-methylbutan-2-yl)-6-((5-methyl-3-(6-methylpyridin-3-yl)isoxazol-4-yl)methoxy)pyridazine-3-carboxamide]"
96,1.96,8.30,"Cc1ccc(-c2noc(C)c2COc2ccc(C(=O)NC3(C)COC3)nn2)cn1 [Example 83, 6-((5-methyl-3-(6-methylpyridin-3-yl)isoxazol-4-yl)methoxy)-N-(3-methyloxetan-3-yl)pyridazine-3-carboxamide]"
54,1.54,7.72,"Cc1ccc(-c2noc(C)c2COc2ccc(C(=O)N3CC(C#N)C3)nn2)cn1 [Example 84, 1-(6-((5-methyl-3-(6-methylpyridin-3-yl)isoxazol-4-yl)methoxy)pyridazine-3-carbonyl)azetidine-3-carbonitrile]"
120,2.2,7.77,"Cc1ccc(-c2noc(C)c2COc2cnc(C(=O)NC3CCC(F)(F)CC3)cn2)cn1 [Example 86, N-(4,4-difluorocyclohexyl)-5-((5-methyl-3-(6-methyl-3-pyridyl)isoxazol-4-yl)methoxy)pyrazine-2-carboxamide]"
80,1.8,8.09,"Cc1ccc(-c2noc(C)c2COc2ccc(C(=O)N[C@H]3CCOC3)nn2)cn1 [Example 87, (S)-6-((5-methyl-3-(6-methylpyridin-3-yl)isoxazol-4-yl)methoxy)-N-(tetrahydrofuran-3-yl)pyridazine-3-carboxamide]"
68,1.68,7.39,"CC[C@@H](CC#N)NC(=O)c1ccc(OCc2c(-c3ccc(C)nc3)noc2C)nn1 [Example 88, (S)—N-(1-cyanobutan-2-yl)-6-((5-methyl-3-(6-methylpyridin-3-yl)isoxazol-4-yl)methoxy)pyridazine-3-carboxamide]"
31,1.31,7.88,"Cc1ccc(-c2noc(C)c2COc2cnc(C(=O)N[C@@H]3CCOC3)cn2)cn1 [Example 89, (R)-5-((5-Methyl-3-(6-methylpyridin-3-yl)isoxazol-4-yl)methoxy)-N-(tetrahydrofuran-3-yl)pyrazine-2-carboxamide]"
37,1.37,7.78,"Cc1ccc(-c2noc(C)c2COc2cnc(C(=O)NCCO)cn2)cn1 [Example 90, N-(2-Hydroxyethyl)-5-((5-methyl-3-(6-methylpyridin-3-yl)isoxazol-4-yl)methoxy)pyrazine-2-carboxamide]"
140,2.4,8.26,"Cc1ccc(-c2noc(C)c2COc2cc3c(cn2)C(=O)N(C2CCS(=O)(=O)CC2)C3)cn1 [Example 91, 2-(1,1-dioxothian-4-yl)-6-((5-methyl-3-(6-methylpyridin-3-yl)-1,2-oxazol-4-yl)methoxy)-1H-pyrrolo[3,4-c]pyridin-3-one]"
92,1.92,8.00,"Cc1ccc(-c2noc(C)c2COc2cnc(C(=O)NC3CCS(=O)(=O)C3)cn2)cn1 (stereo not drawn) [Example 94, N-(1,1-dioxothiolan-3-yl)-5-((5-methyl-3-(6-methylpyridin-3-yl)-1,2-oxazol-4-yl)methoxy)pyrazine-2-carboxamide]"
67,1.67,7.87,"Cc1ccc(-c2noc(C)c2COc2cnc(C(=O)NCC3CC3)cn2)cn1 [Example 95, N-(cyclopropylmethyl)-5-((5-methyl-3-(6-methylpyridin-3-yl)isoxazol-4-yl)methoxy)pyrazine-2-carboxamide]"
88,1.88,8.14,"Cc1ccc(-c2noc(C)c2COc2cc3c(cn2)C(=O)N(C2CCC(F)(F)CC2)C3)cn1 [Example 96, 2-(4,4-difluorocyclohexyl)-6-((5-methyl-3-(6-methylpyridin-3-yl)isoxazol-4-yl)methoxy)-1H-pyrrolo[3,4-c]pyridin-3(2H)-one]"
71,1.71,7.87,"Cc1ccc(-c2noc(C)c2COc2ccc(C(=O)NC3(C)CCOCC3)nn2)cn1 [Example 97, 6-((5-methyl-3-(6-methylpyridin-3-yl)isoxazol-4-yl)methoxy)-N-(4-methyltetrahydropyran-4-yl)pyridazine-3-carboxamide]"
76,1.76,7.21,"Cc1ccc(-c2noc(C)c2COc2cnc(C(=O)N[C@@H]3CCCOC3)cn2)cn1 [Example 98, (R)-5-((5-methyl-3-(6-methylpyridin-3-yl)isoxazol-4-yl)methoxy)-N-(tetrahydropyran-3-yl)pyrazine-2-carboxamide]"
73,1.73,8.17,"Cc1ccc(-c2noc(C)c2COc2ccc(C(=O)N[C@@H]3CCCOC3)nn2)cn1 [Example 99, (R)-6-((5-methyl-3-(6-methylpyridin-3-yl)isoxazol-4-yl)methoxy)-N-(tetrahydropyran-3-yl)pyridazine-3-carboxamide]"
70,1.7,8.07,"Cc1ccc(-c2noc(C)c2COc2ccc(C(=O)NC3CC4(COC4)C3)nn2)cn1 [Example 100, 6-((5-methyl-3-(6-methylpyridin-3-yl)isoxazol-4-yl)methoxy)-N-(2-oxaspiro[3.3]heptan-6-yl)pyridazine-3-carboxamide]"
82,1.82,7.30,"Cc1ccc(-c2noc(C)c2COc2cnc(C(=O)NC3CC4(COC4)C3)cn2)cn1 [Example 101, 5-((5-methyl-3-(6-methylpyridin-3-yl)isoxazol-4-yl)methoxy)-N-(2-oxaspiro[3.3]heptan-6-yl)pyrazine-2-carboxamide]"

Structure (SMILES),Efficacy (GABA) % (h-GABA-A α5β3γ2 [1]) [%],Fold increase h-GABA-A α5β3γ2 oocyte (h-GABA-A α5β3γ2 [1]),pKi (h-GABA-A α5β3γ2 [2])
"Cc1ccc(-c2noc(C)c2COc2cnc(C(=O)NC3COC3)cn2)cn1 [Example 77, 5-((5-methyl-3-(6-methyl-3-pyridyl)isoxazol-4-yl)methoxy)-N-(oxetan-3-yl)pyrazine-2-carboxamide]",11,1.11,8.28
